The structures appear in SMILES notation.

The target of assay [1] is CDK2/Cyclin E1 full length (Homo sapiens (Human), UniProt P24941). As to the kind of experiment: CDK2/Cyclin E1 full length mobility shift assay. The format is biochemical.
Description: Cdk2/Cyclin E1 Full Length Mobility Shift Assay
Wild-type CDK2/wild-type full length Cyclin E1 enzyme complex was produced in-house (baculoviral expression, LJIC-2080/LJIC-2103) and phosphorylated by CDK7/Cyclin H1/Matl enzyme complex with CDK2:CDK7 ratio of 50:1 (concentration mg/mL) in the presence of 10 mM MgCl2 and 5 mM ATP at room temperature for one hour. […] The assay was initiated with the addition of ATP, following a fifteen minutes pre-incubation of enzyme and inhibitor at room temperature in the reaction mixture. The reaction was stopped after 45 minutes at room temperature by the addition of 50 μL of 80 mM EDTA.
For a further assay, the target named is GSK3β (H350L) (Homo sapiens (Human), UniProt P49841). The conditions noted are these: read-out: GSK3β Ki.
Chain of GSK3β (H350L) (P49841 whole entry, stated change not applied): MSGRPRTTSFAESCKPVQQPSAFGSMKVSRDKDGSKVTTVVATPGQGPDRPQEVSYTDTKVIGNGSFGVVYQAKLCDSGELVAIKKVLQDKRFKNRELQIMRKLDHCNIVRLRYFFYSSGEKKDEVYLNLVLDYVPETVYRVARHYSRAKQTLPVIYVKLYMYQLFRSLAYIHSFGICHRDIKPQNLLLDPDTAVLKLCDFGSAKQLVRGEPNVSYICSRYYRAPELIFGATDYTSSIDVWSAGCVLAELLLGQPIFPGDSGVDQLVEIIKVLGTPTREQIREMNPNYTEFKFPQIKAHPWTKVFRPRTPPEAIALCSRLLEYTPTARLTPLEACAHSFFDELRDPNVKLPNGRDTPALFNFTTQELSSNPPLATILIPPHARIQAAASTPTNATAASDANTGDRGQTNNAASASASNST

Description for GSK3β (H350L): The assay was initiated with the addition of ATP, following 15 minutes pre-incubation of enzyme and inhibitor at room temperature in the reaction mixture. The reaction was stopped after 30 minutes at room temperature by the addition of 50 μL of 80 mM EDTA.

On to `CCCNC(=O)O[C@@H]1CC[C@H](c2cc(NC(=O)Cc3cc(C)no3)n[nH]2)C1` [Example 178, (1R,3S)-3-(3-{[(3-methyl-1,2-oxazol-5-yl)acetyl]amino}-1H-pyrazol-5-yl)cyclopentyl propylcarbamate], for which the inhibition constant (Ki) (usually the dissociation constant of the complex between target and ligand, obtained from inhibition or displacement) in assay [1] was found to be 1.1 nM; on GSK3β (H350L), 21.4 nM.
Turning to `CCCNC(=O)O[C@@H]1CC[C@H](c2cc(NC(=O)Cc3cncs3)n[nH]2)C1` [Example 179, (1R,3S)-3-{3-[(1,3-thiazol-5-ylacetyl)amino]-1H-pyrazol-5-yl}cyclopentyl propylcarbamate], the values for the Ki (in assay [1]; on GSK3β (H350L)) were 0.54 nM and 13.5 nM, respectively.
With `CCCNC(=O)O[C@H]1CC[C@@H](c2cc(NC(=O)c3ccc(C)nc3C)n[nH]2)C1` [Example 180, (1S,3R)-3-(3-{[(2,6-dimethylpyridin-3-yl)carbonyl]amino}-1H-pyrazol-5-yl)cyclopentyl propylcarbamate], the results for the inhibitory constant (Ki) (in assay [1]; on GSK3β (H350L)) were 0.81 nM and more than 95.3 nM, respectively.
Take `CCCNC(=O)O[C@@H]1CC[C@H](c2cc(NC(=O)c3ccc(C)nc3C)n[nH]2)C1` [Example 181, (1R,3S)-3-(3-{[(2,6-dimethylpyridin-3-yl)carbonyl]amino}-1H-pyrazol-5-yl)cyclopentyl propylcarbamate]: the Ki is 3.91 nM in assay [1] and more than 191 nM on GSK3β (H350L).
The corresponding values for `CCCNC(=O)O[C@H]1CC[C@@H](c2cc(NC(=O)c3ccc(OC)nc3)n[nH]2)C1` [Example 182, (1S,3R)-3-(3-{[(6-methoxypyridin-3-yl)carbonyl]amino}-1H-pyrazol-5-yl)cyclopentyl propylcarbamate] are 0.82 nM and 90.6 nM.
The like results for `CCCNC(=O)O[C@@H]1CC[C@H](c2cc(NC(=O)c3ccc(OC)nc3)n[nH]2)C1` [Example 183, (1R,3S)-3-(3-{[(6-methoxypyridin-3-yl)carbonyl]amino}-1H-pyrazol-5-yl)cyclopentyl propylcarbamate] were, in that order, 3.68 nM and more than 95.3 nM.
Turning to `CCCNC(=O)O[C@H]1CC[C@@H](c2cc(NC(=O)c3ccnc(OC)c3)n[nH]2)C1` [Example 184, (1S,3R)-3-(3-{[(2-methoxypyridin-4-yl)carbonyl]amino}-1H-pyrazol-5-yl)cyclopentyl propylcarbamate], the inhibitory constant (Ki) in assay [1] was 1.35 nM; on GSK3β (H350L), more than 95.3 nM.
Take `CCCNC(=O)O[C@@H]1CC[C@H](c2cc(NC(=O)Cc3cnc(C)s3)n[nH]2)C1` [Example 185, (1R,3S)-3-(3-{[(2-methyl-1,3-thiazol-5-yl)acetyl]amino}-1H-pyrazol-5-yl)cyclopentyl propylcarbamate]: the inhibitory constant (Ki) in assay [1] was 0.71 nM; on GSK3β (H350L), 13 nM.
As to `CCCNC(=O)O[C@H]1CC[C@@H](c2cc(NC(=O)Cc3ccc(OC)cn3)n[nH]2)C1` [Example 186, (1S,3R)-3-(3-{[(5-methoxypyridin-2-yl)acetyl]amino}-1H-pyrazol-5-yl)cyclopentyl propylcarbamate], the Ki in assay [1] turned out to be 1.03 nM; at GSK3β (H350L), 9.64 nM.
The like results for `CCCNC(=O)O[C@@H]1CC[C@H](c2cc(NC(=O)Cc3ccc(OC)nc3)n[nH]2)C1` [Example 188, (1R,3S)-3-(3-{[(6-methoxypyridin-3-yl)acetyl]amino}-1H-pyrazol-5-yl)cyclopentyl propylcarbamate] were, in that order, 0.44 nM and 9.32 nM.
With `CCCNC(=O)O[C@H]1CC[C@@H](c2cc(NC(=O)Cc3cnc(OC)s3)n[nH]2)C1` [Example 189, (1S,3R)-3-(3-{[(2-methoxy-1,3-thiazol-5-yl)acetyl]amino}-1H-pyrazol-5-yl)cyclopentyl propylcarbamate], the inhibition constant (Ki) was 0.38 nM in assay [1] and 11.4 nM at GSK3β (H350L).
The like results for `CCCNC(=O)O[C@@H]1CC[C@H](c2cc(NC(=O)Cc3cnc(OC)s3)n[nH]2)C1` [Example 190, (1R,3S)-3-(3-{[(2-methoxy-1,3-thiazol-5-yl)acetyl]amino}-1H-pyrazol-5-yl)cyclopentyl propylcarbamate] were, in that order, 0.81 nM and 26.1 nM.
Turning to `CCCNC(=O)O[C@H]1CC[C@@H](c2cc(Nc3ccc4c(n3)CC[C@@H]4N(C)C)n[nH]2)C1` [Example 192, (1S,3R)-3-(3-{[(5S)-5-(dimethylamino)-6,7-dihydro-5H-cyclopenta[b]pyridin-2-yl]amino}-1H-pyrazol-5-yl)cyclopentyl propylcarbamate], the Ki in assay [1] is 0.7 nM; on GSK3β (H350L), more than 191 nM.
The corresponding values for `CCCNC(=O)O[C@H]1CC[C@@H](c2cc(NC(=O)Cc3ccccc3OCCN)n[nH]2)C1` [Example 197, (1S,3R)-3-[3-({[2-(2-aminoethoxy)phenyl]acetyl}amino)-1H-pyrazol-5-yl]cyclopentyl propylcarbamate] are 0.49 nM and more than 191 nM.
For `CCCNC(=O)O[C@H]1CC[C@@H](c2cc(NC(=O)Cc3ccc(OCCN)cc3)n[nH]2)C1` [Example 198, (1S,3R)-3-[3-({[4-(2-aminoethoxy)phenyl]acetyl}amino)-1H-pyrazol-5-yl]cyclopentyl propylcarbamate], the Ki in assay [1] turned out to be 0.28 nM; at GSK3β (H350L), 52.1 nM.
The like results for `CCCNC(=O)O[C@H]1CC[C@@H](c2cc(NC(=O)Cc3ccccc3S(C)(=O)=O)n[nH]2)C1` [Example 203, (1S,3R)-3-[3-({[2-(methylsulfonyl)phenyl]-acetyl}amino)-1H-pyrazol-5-yl]cyclopentyl propylcarbamate] were, in that order, 0.29 nM and 34.2 nM.
On to `CCCNC(=O)O[C@@H]1CC[C@H](c2cc(NC(=O)Cc3ccccc3S(=O)(=O)CC)n[nH]2)C1` [Example 205, (1R,3S)-3-[3-({[2-(ethylsulfonyl)phenyl]-acetyl}amino)-1H-pyrazol-5-yl]cyclopentyl propylcarbamate], for which the Ki in assay [1] came out at 0.76 nM; on GSK3β (H350L) it was 97.7 nM.
Take `CCCNC(=O)O[C@@H]1CC[C@H](c2cc(NC(=O)Cc3cc(C)ccc3S(C)(=O)=O)n[nH]2)C1` [Example 206, (1R,3S)-3-[3-({[5-methyl-2-(methylsulfonyl)phenyl]acetyl}amino)-1H-pyrazol-5-yl]cyclopentyl propylcarbamate]: the inhibitory constant (Ki) was 1.22 nM in assay [1] and more than 95.3 nM on GSK3β (H350L).
With `CCCNC(=O)O[C@@H]1CC[C@H](c2cc(NC(=O)Cc3ccc(OC)cc3S(C)(=O)=O)n[nH]2)C1` [Example 212, (1R,3S)-3-[3-({[4-methoxy-2-(methylsulfonyl)phenyl]acetyl}amino)-1H-pyrazol-5-yl]cyclopentyl propylcarbamate], the Ki came to 0.67 nM in assay [1] and 77.2 nM at GSK3β (H350L).
Turning to `CCCNC(=O)O[C@@H]1CC[C@H](c2cc(NC(=O)Cc3cc(OC)ccc3S(C)(=O)=O)n[nH]2)C1` [Example 213, (1R,3S)-3-[3-({[5-methoxy-2-(methylsulfonyl)phenyl]acetyl}amino)-1H-pyrazol-5-yl]cyclopentyl propylcarbamate], the Ki in assay [1] is 0.32 nM; at GSK3β (H350L), 183 nM.
For `CCCNC(=O)O[C@@H]1CC[C@H](c2cc(NC(=O)Cc3cc(OC)ncc3S(C)(=O)=O)n[nH]2)C1` [Example 214, (1R,3S)-3-[3-({[2-methoxy-5-(methylsulfonyl)pyridin-4-yl]acetyl}amino)-1H-pyrazol-5-yl]cyclopentyl propylcarbamate], the Ki amounted to 0.37 nM in assay [1] and 131 nM at GSK3β (H350L).
On to `Cn1cc(CC(=O)Nc2cc([C@H]3CC[C@@H](OC(=O)NCCC(F)(F)F)C3)[nH]n2)cn1` [Example 216, (1R,3S)-3-(3-{[(1-methyl-1H-pyrazol-4-yl)acetyl]amino}-1H-pyrazol-5-yl)cyclopentyl (3,3,3-trifluoropropyl)carbamate], for which the Ki in assay [1] was 0.86 nM; at GSK3β (H350L), 28.2 nM.
Regarding `Cc1cnc(CC(=O)Nc2cc([C@H]3CC[C@@H](OC(=O)NCCC(F)(F)F)C3)[nH]n2)o1` [Example 218, (1R,3S)-3-(3-{[(5-methyl-1,3-oxazol-2-yl)acetyl]amino}-1H-pyrazol-5-yl)cyclopentyl (3,3,3-trifluoropropyl)carbamate], the Ki was determined as 2.09 nM in assay [1] and 30.6 nM on GSK3β (H350L).
On to `CCNC(=O)O[C@@H]1CC[C@H](c2cc(NC(=O)Cc3ccno3)n[nH]2)C1` [Example 226, (1R,3S)-3-{3-[(1,2-oxazol-5-ylacetyl)amino]-1H-pyrazol-5-yl}cyclopentyl ethylcarbamate], for which the figures for the Ki (in assay [1]; on GSK3β (H350L)) were 3.72 nM and 132 nM, respectively.
Regarding `CCNC(=O)O[C@@H]1CC[C@H](c2cc(NC(=O)Cc3ccc(C)nc3)n[nH]2)C1` [Example 227, (1R,3S)-3-(3-{[(6-methylpyridin-3-yl)acetyl]amino}-1H-pyrazol-5-yl)cyclopentyl ethylcarbamate], the Ki in assay [1] came to 1.21 nM; on GSK3β (H350L), 18.9 nM.
As to `CCNC(=O)O[C@@H]1CC[C@H](c2cc(NC(=O)Cc3ccc(OC)cc3)n[nH]2)C1` [Example 230, (1R,3S)-3-(3-{[(4-methoxyphenyl)acetyl]amino}-1H-pyrazol-5-yl)cyclopentyl ethylcarbamate], the Ki in assay [1] was found to be 1.55 nM; on GSK3β (H350L) it was 48.6 nM.
`CCNC(=O)O[C@@H]1CC[C@H](c2cc(NC(=O)Cc3ccc(OC)nc3)n[nH]2)C1` [Example 231, (1R,3S)-3-(3-{[(6-methoxypyridin-3-yl)acetyl]amino}-1H-pyrazol-5-yl)cyclopentyl ethylcarbamate]: the figures for the inhibitory constant (Ki) (in assay [1]; on GSK3β (H350L)) were 1.18 nM and 15.6 nM, respectively.
In the case of `CCNC(=O)O[C@@H]1CC[C@H](c2cc(NC(=O)Cc3ccnc(OC)c3)n[nH]2)C1` [Example 232, (1R,3S)-3-(3-{[(2-methoxypyridin-4-yl)acetyl]amino}-1H-pyrazol-5-yl)cyclopentyl ethylcarbamate], the values for the Ki (in assay [1]; at GSK3β (H350L)) were 1.54 nM and 34.1 nM, respectively.
With `CCNC(=O)O[C@@H]1CC[C@H](c2cc(NC(=O)Cc3cc(F)cc(F)c3)n[nH]2)C1` [Example 233, (1R,3S)-3-(3-{[(3,5-difluorophenyl)acetyl]amino}-1H-pyrazol-5-yl)cyclopentyl ethylcarbamate], the values for the Ki (in assay [1]; at GSK3β (H350L)) were 0.85 nM and 43.4 nM, respectively.

The values are drawn from patent US11014911B2, “CDK2 inhibitors” (Pfizer Inc., priority 2019, dated 2021).
